Source: patent US10294226B2, “Small molecule inhibitors of the JAK family of kinases” (Janssen Pharmaceutica NV, priority 2016, dated 2019)

Legend:
[1] = In vivo oral (p.o.) dosing, plasma and colon concentrations (Protocols 1 and 2); design: species or system female C57BL/6 mice; conditions: mice, 25 mg/kg p.o.
Description: These protocols are described below under the heading In vivo Studies. Three non-fasted female C57BL/6 mice were orally administered test compound at a dose of 25 mg/kg p.o. as a solution in 20% hydroxypropyl-beta-cyclodextrin (HPβCD) at a dose volume of 5 mL/kg. Blood samples were collected at 0.5, 2, and 4 h post dose via retro-orbital bleed or venipuncture of the dorsal metatarsal vein. Blood samples were collected into tubes containing anticoagulant (Heparin-Na) and placed on wet ice. […] Colon samples were collected at 4 h post dose. […] The colon was further washed by putting it in 5 mL of saline and shaken for 5 seconds. The colon sample was then patted dry, weighed, and homogenized as 1 part tissue (g) to 4 parts HPLC grade water (mL). Concentrations of the compound in plasma and colon homogenate were determined using a qualified liquid chromatography-triple quadrupole mass spectrometry (LC-MS/MS) method. […] Three non-fasted female C57BL/6 mice were orally administered test compound at a dose of 25 mg/kg p.o. as a solution in 20% HPβCD at a dose volume of 5 mL/kg. Blood samples were collected at 0.5, 2, and 4 h post dose via retro-orbital bleed or dorsal metatarsal vein. Blood samples were collected into tubes containing anticoagulant (Heparin-Na) and placed on wet ice. […] Colon samples were collected at 4 h post dose. […] The colon was further washed by putting it in 5 mL of saline and shaken for 5 seconds. The colon sample was then patted dry, weighed, and homogenized as 1 part tissue (g) to 4 parts HPLC grade water (mL). Concentrations of the compound in plasma and colon homogenate were determined using a qualified liquid chromatography-triple quadrupole mass spectrometry (LC-MS/MS) method.

[2] = system: MDCK-MDR1 cell line; assay: MDCK-MDR1 permeability assay; format: in vitro ADME; conditions: @ 5 μM, apical to basolateral, with P-gp inhibitor elacridar (2 μM)
[3] = system: P-gp (MDR1); assay: MDCK-MDR1 permeability assay; format: in vitro ADME; conditions: dog
[4] = physchem; conditions: thermodynamic from solid
[5] = biological target: JAK2-JH1JH2 (Homo sapiens (Human), UniProt O60674); assay: Enzymatic inhibition assay (HTMS); format: biochemical; conditions: read-out: JAK2_I_JH1JH2 IC50
Description: (§1) JAK1-JH1JH2 (574-1154 with a His-GST Tag and a C-terminal tev (ENLYFQ-G) cleavage site), JAK3-JH1JH2 (512-1124 with a GST Tag and a C-terminal tev (ENLYFQ-G) cleavage site), and Tyk2-JH1JH2 (8H_tev_580-1182-C936A-C1142A with a C-terminal tev (ENLYFQ-G) cleavage site) were purified internally. […] LC/MS grade water and acetonitrile (ACN), were purchased from HoneyWell, Burdick & Jackson (Muskegon, Mich., USA). Dimethylsulfoxide 99.8% (DMSO) and trifluoroacetic acid 99.5% (TFA) were purchased from EMD Chemical (Gibbstown, N.J., USA). Adenosine triphosphate (ATP), 4-morpholinepropanesulfonic acid (MOPS), magnesium chloride (MgCl2), ethylenediaminetetraacetic acid (EDTA), dithiothreitol (DTT), formic acid>95% (FA) and Tween-20 were purchased from Sigma (St Louis, Mo., USA). 384-well polypropylene plates, Cat#781280 were purchased from Greiner (Monroe, N.C.), RapidFire™ cartridge A C4 Column (Agilent Technologies, Santa Clara, Calif.).
(§2) The HTMS experiments were performed in positive ionization mode on a RapidFire 300 instrument (Agilent Technologies, Santa Clara, Calif.), coupled with an ABSiex QTrap 4000 system with an Electrospray Ionization source (RF-MS) (Concord, ON, Canada). […] The entire system was operated using the RapidFire software interfaced with Analyst software for the mass spectrometer.
(§3) 11-point dosing series were made for each compound by serially diluting 1:3 or 1:4 in DMSO, with point 12 being a DMSO control. From the serial dilution plates, sample was transferred to a 384 wells assay plate (#781280, Greiner, Monroe, N.C.) using Labcyte Echo (Sunnyvale, Calif.), or Biosero ATS (San Diego, Calif.). The compounds were tested in duplicate. Column 12 was used for positive controls, and column 24 contained negative controls with no enzyme added. A compound from our internal collection, with inhibitory activity for JAK isoforms, was used as a reference compound. The final concentration of DMSO was ≤0.25% in a 20 μL reaction. The enzyme reaction was initiated by the addition of 10 μL of enzyme and ATP mixture to 10 μL of substrate solution prepared in reaction buffer (50 mM MOPS pH 7.5, 10 mM MgCl2, 1 mM EDTA, 2 mM DTT, 0.002% Tween-20). The Tyk2 enzyme was pre-incubated with 2 mM ATP for 30 min prior to the reaction initiation. Immediately after the addition of the enzyme to the reaction mixture, the plate was centrifuged at 1000 rpm for 1 minute and incubated at 25° C. for 45 minutes for JAK3 and 90 minutes for JAK1, JAK2 and Tyk2. The reaction was quenched by the addition of 20 μL of 0.5% TFA containing 0.15 μM of internal standard peptide using Multidrop Combi reagent dispenser (Thermo Scientific, Waltham, Mass.). […] After the quench, the assay plate was centrifuged at 3000 rpm for 3 minutes and sealed with pierceable aluminum foil (Cat#06644-001, Agilent) using a PlateLoc (Agilent Technologies, Santa Clara, Calif.). The plates then were transferred on to the RapidFire for the MS analysis. Compound inhibition was assessed by a decrease of the phosphorylated product levels in sample wells compared to the non-inhibited enzyme reaction.
(§4) The sample analysis on the RapidFire was performed using a mobile phase A1 consisting of Water/TFA/FA (100:0.01:0.1, v/v/v), a mobile phase B1 consisting of ACN/Water/TFA/FA (80:20:0.01:0.1, v/v/v). […] The samples were aspirated directly from the 384-well assay plate and delivered onto RF-MS microscale solid-phase C4 extraction cartridge (Type A). The undesired component such as salt, cofactor, detergent and large protein were washed out and the retained analytes (substrate, product and IS) were coeluted directly onto the AB Siex Qtrap 4000 system.

[6] = biological target: Tyk2-JH1JH2 (Homo sapiens (Human), UniProt P29597, C1142A/C936A); assay: Enzymatic inhibition assay (HTMS); format: biochemical; conditions: read-out: Tyk2_I_JH1JH2 IC50
Tyk2-JH1JH2, sequence (P29597 580-1182 C936A/C1142A): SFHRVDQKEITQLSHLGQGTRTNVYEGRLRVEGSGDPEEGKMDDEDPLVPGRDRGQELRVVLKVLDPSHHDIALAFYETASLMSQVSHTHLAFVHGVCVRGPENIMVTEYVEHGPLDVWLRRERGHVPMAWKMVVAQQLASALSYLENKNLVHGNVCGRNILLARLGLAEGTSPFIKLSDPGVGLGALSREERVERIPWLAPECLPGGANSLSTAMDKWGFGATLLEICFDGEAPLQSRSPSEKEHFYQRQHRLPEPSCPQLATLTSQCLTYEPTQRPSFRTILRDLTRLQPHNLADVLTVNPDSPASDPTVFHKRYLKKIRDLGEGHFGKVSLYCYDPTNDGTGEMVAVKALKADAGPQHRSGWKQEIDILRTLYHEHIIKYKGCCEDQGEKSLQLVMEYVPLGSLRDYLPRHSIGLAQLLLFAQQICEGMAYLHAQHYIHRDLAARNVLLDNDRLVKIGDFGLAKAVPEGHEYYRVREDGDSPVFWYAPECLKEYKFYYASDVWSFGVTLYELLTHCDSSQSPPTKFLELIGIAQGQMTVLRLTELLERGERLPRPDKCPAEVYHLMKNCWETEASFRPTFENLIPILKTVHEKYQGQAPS
Description: as §1, §2, §3, §4

[7] = biological target: JAK1-JH1JH2 (Homo sapiens (Human), UniProt P23458); assay: Enzymatic inhibition assay (HTMS); format: biochemical
JAK1-JH1JH2, sequence (P23458 574-1154): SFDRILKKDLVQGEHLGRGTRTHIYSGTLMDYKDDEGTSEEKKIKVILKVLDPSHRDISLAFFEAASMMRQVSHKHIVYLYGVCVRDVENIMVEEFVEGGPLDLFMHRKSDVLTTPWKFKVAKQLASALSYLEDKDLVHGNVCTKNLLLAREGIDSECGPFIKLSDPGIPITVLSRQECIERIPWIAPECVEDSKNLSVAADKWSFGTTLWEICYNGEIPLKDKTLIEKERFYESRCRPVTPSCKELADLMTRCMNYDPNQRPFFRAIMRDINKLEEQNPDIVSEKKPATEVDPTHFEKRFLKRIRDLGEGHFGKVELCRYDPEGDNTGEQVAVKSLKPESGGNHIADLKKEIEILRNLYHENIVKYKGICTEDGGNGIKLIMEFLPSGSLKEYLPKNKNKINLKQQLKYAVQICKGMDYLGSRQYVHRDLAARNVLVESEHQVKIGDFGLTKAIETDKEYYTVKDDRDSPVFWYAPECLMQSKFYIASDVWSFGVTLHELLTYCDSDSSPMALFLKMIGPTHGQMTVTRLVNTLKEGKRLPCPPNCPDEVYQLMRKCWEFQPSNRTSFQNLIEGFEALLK
Description: as §1, §2, §3, §4

[8] = biological target: JAK3-JH1JH2 (Homo sapiens (Human), UniProt P52333); assay: Enzymatic inhibition assay (HTMS); format: biochemical; conditions: 150 μM ATP; read-out: JAK3_I_JH1JH2 IC50
JAK3-JH1JH2, sequence (P52333 512-1124): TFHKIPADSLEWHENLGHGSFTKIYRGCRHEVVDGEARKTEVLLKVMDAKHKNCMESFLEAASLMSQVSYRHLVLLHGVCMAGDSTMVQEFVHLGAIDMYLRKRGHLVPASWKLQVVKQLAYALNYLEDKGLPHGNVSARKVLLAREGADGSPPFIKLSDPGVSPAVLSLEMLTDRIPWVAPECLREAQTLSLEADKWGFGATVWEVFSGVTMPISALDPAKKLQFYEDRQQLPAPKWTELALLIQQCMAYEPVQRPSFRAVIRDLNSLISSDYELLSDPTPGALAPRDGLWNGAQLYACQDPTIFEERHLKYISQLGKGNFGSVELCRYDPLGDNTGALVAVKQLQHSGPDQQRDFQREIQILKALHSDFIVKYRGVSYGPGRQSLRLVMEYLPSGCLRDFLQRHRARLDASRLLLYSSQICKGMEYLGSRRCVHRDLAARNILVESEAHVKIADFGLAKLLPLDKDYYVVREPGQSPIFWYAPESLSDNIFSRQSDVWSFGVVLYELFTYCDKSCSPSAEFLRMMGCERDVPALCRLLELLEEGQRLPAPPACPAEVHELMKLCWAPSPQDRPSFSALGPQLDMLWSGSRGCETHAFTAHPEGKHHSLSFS
Description: as §1, §2, §3, §4

[9] = Polymorph screening, physical stability of crystalline embodiments of compound Ex. 1; format: physicochemical; conditions: for physical stability of solid form: ambient conditions; for physical stability of solid form after AAC: 2 days at 40° C./70% RH, HT-XRPD; for physical stability of solid form in climate chamber: four days, HR-XRPD
Description: Long term slurry experiments were performed by suspending compound embodiment 1s in twenty neat solvents and stirred at room temperature for two weeks and at 50° C. for one week. Upon completion of the equilibration time, the residual solids were separated from the mother liquors. The solids were dried under ambient conditions and dried under vacuum (5 mBar) before being analyzed by HT-XRPD. Subsequently, the solids were exposed to accelerated aging conditions (40° C./70% relative humidity) for two days and again analyzed by HT-XRPD.
Embodiment 1s converted to hydrated embodiment 10 when it was exposed to 100% RH at 25° C. […] This behavior is attributable to an unequally strong binding of all the hydration/solvation molecules. In this case, embodiment 10 would have a less strongly bound second water molecule that would be lost under ambient conditions. More precisely, the physical stability of embodiment 1s was investigated in climate chambers by exposing a 20 mg sample of such embodiment to 40° C. and 70% relative humidity for four days, and another 20 mg sample of the same embodiment was exposed also for four days to 25° C. and 100% relative humidity. After four days, the various solid samples were analyzed by HR-XRPD, the crystal cell parameters were determined and the diffractograms were indexed. From bottom to top, the first diffractogram in FIG. 6 corresponds to embodiment 1s as starting material, and the second corresponds to the same form after a 4-day exposure to 40° C. and 70% relative humidity, noted as “1s 70 RH” in the same figure. […] Indexing for such form was not possible due to the small amount in which it was present. The third diffractogram corresponds to embodiment 1s after a 4-day exposure to 25° C. and 100% relative humidity, noted as “10” in the same figure. […] Upon dehydration, both embodiments 1s and 10 re-crystallized to the anhydrous form with a melting point of 148° C.
The mother liquors of the solvent equilibration experiments performed at 50° C. were filtered at 50° C. to remove any particulate matter. The suspensions at 50° C. were filtered using 0.2 μm PTFE filters, and the solutions were placed at 5° C. and aged for 72 hours. When solids had precipitated during aging these solids were separated from the liquid, dried under ambient conditions and under vacuum, and analyzed by HT-XRPD. The remaining mother liquors were allowed to slowly evaporate and the remaining solids were analyzed by HT-XRPD. The samples in which no precipitation occurred were placed under vacuum and the dried solids were analyzed by HT-XRPD. All the solids were then exposed to AAC (2 days at 40° C./70% RH) and re-analyzed by HT-XRPD.
The cooling/evaporative crystallization experiments at μL scale were performed in a 96-well plate, using 12 neat solvents and 12 solvent mixtures and applying four temperature profiles. In each well approximately 4 mg of embodiment 1s was solid dosed. Subsequently, the crystallization solvents (80 μL) and solvent mixtures were added to reach a concentration of 50 mg/mL, and the plate, with each well individually sealed, to subsequently undergo one of the four temperature profiles. Upon completion of the temperature profile the solvents were allowed to evaporate at low ambient pressure (24 hours) and the remaining solids were analyzed by HT-XRPD before and after exposure to AAC for 2 days (40° C./70% RH).
The cooling crystallization experiments with hot filtration were performed from supersaturated solutions of compound Ex. 1 prepared at 50° C. in different solvent mixtures. The hot filtrated solutions underwent a 48-hour cooling profile. The vials in which solids had precipitated after the temperature profile were centrifuged and the solids were separated from the liquid and analyzed by HT-XRPD (after drying under vacuum). If no solids had precipitated the solutions were evaporated under vacuum and the solids analyzed by HT-XRPD. […]

C[C@@H](O)c1nc2cnc3[nH]ccc3c2n1[C@H]1CC[C@H](CC#N)CC1 [C, reference compound]
Plasma Concentration After p.o. Dosing, Mean ([1]; Time = 0.5 h): […] | Plasma Concentration After p.o. Dosing, Mean ([1]; Time = 2 h): […] | Colon Concentration After p.o. Dosing, Mean ([1]; Time = 4 h): […] | Plasma Concentration After p.o. Dosing, Mean ([1]; Time = 4 h): […] | MDCK-MDR1 P^eapp(A-B) [2]: 2.5 10^−6 cm/sec | Papp A→B at 60 min, 5 μM ([3]; MDCK-MDR1, pH 7.4, @ 5 μM, apical to basolateral, without elacridar, read-out: MDCK-MDR1 Papp(A-B)): 0.5 ×10⁻⁶ cm/s | Papp B→A at 60 min, 5 μM ([3]; MDCK-MDR1, pH 7.4, @ 5 μM, basolateral to apical): 23.1 ×10⁻⁶ cm/s | solubility ([4]; pH 6.5, fassif): > 400 µM | solubility ([4]; simulated gastric fluid): > 400 µM | IC50 [5]: […] | IC50 [6]: 0.2 nM | IC50 [7]: < 0.2 nM | IC50 [8]: 49.7 nM

CC(C)(O)CNC(=O)Cc1nc2cnc3[nH]ccc3c2n1[C@H]1CC[C@H](CC#N)CC1 [Embodiment 4]
physical stability of solid form [9]: did not appear to be physically stable

CC(C)(O)CNC(=O)Cc1nc2cnc3[nH]ccc3c2n1[C@H]1CC[C@H](CC#N)CC1 [Embodiment 5]
physical stability of solid form after AAC [9]: physically unstable

CC(C)(O)CNC(=O)Cc1nc2cnc3[nH]ccc3c2n1[C@H]1CC[C@H](CC#N)CC1 [Embodiment 6]
physical stability of solid form after AAC [9]: stable solid form

CC(C)(O)CNC(=O)Cc1nc2cnc3[nH]ccc3c2n1[C@H]1CC[C@H](CC#N)CC1 [Embodiment 7]
physical stability of solid form after AAC [9]: physically stable

CC(C)(O)CNC(=O)Cc1nc2cnc3[nH]ccc3c2n1[C@H]1CC[C@H](CC#N)CC1 [embodiment 1s]
physical stability of solid form in climate chamber ([9]; 25° C. and 100% relative humidity): conversion of embodiment 1s into embodiment 10 | physical stability of solid form in climate chamber ([9]; 40° C. and 70% relative humidity): initial embodiment 1s had been recovered

CC(C)(O)CNC(=O)Cc1nc2cnc3[nH]ccc3c2n1[C@H]1CC[C@H](CC#N)CC1 [embodiment 2]
physical stability of solid form after AAC [9]: converted to embodiment 3e

CC(C)(O)CNC(=O)Cc1nc2cnc3[nH]ccc3c2n1[C@H]1CC[C@H](CC#N)CC1 [embodiment 10]
physical stability of solid form [9]: physically not stable
